In PMC6423129, “Activity and structural analysis of GRL-117C: a novel small molecule CCR5 inhibitor active against R5-tropic HIV-1s” (Scientific Reports, 2019):
Counter-ions that a name gives are not always drawn.

Columns and labels:
[1] = tested on: HIV-1KP-5mvcR; assay: TZM-bl single-round infection assay, MVC-resistant HIV-1KP-5mvcR; assay type: cell-based
Method: (§1) MAGI-CCR5 cells[18] were maintained in DMEM supplemented with 10% fetal calf serum (FCS: Gemini Bio-Products, West Sacramento, CA), 200 μg/ml G418, 100 μg/ml hygromycin B, and 100 μg/ml zeomycin. The Chinese hamster ovary (CHO) cells expressing CCR5[19] were maintained in Ham’s F-12 medium (GIBCO-BRL, Rockville, MD) supplemented with 10% FCS, 50 U/ml penicillin, and 50 μg/ml streptomycin in the presence of 5 μg/ml blasticidin S hydrochloride. TZM-bl cells were obtained from the NIH AIDS Reagent Program, and were cultured in DMEM with 10% FCS. Peripheral blood mononuclear cells (PBMCs) were isolated from buffy coats of HIV-1 seronegative individuals, and were activated with 10 μg/ml phytohemagglutinin (PHA) prior to use[16]. A laboratory wild-type R5-HIV-1 strain (HIV-1Ba-L)[37] was employed for drug susceptibility assays. AD101 (experimental CCR5 inhibitor) and VVC-resistant HIV clones[7],[8] were provided by Dr. John P. Moore of Cornell University for this study. The clones were propagated with activated PBMCs, and were used for the assays. A clinical HIV-1 strain, HIV-1KP-5pc, and an MVC-resistant isolate, HIV-1KP-5mvcR, were prepared and used for antiviral assays, as previously described[10],[38]. The following reagents (plasmids) for T/F HIV-1 viruses[22],[24] were obtained through the NIH AIDS Reagent Program, Division of AIDS, NIAID, NIH: pCH040.c/2625 (cat# 11740), pCH106.c/2633 (cat# 11743), pTHRO.c/2626 (cat# 11745), and pCH058.c/2960 (cat# 11856), from Dr. John Kappes and Dr. Christina Ochsenbauer.
(§2) Antiviral assays using PHA-PBMCs (p24 assay) were conducted as previously reported[16],[38]. In brief, PHA-PBMCs (1 × 10^6/ml) were exposed to 50 TCID50 of HIV-1Ba-L or drug-resistant HIV-1 infectious clones in the presence or absence of various concentrations of drugs; 10-fold serial dilutions were performed in 96-well microculture plates. The amount of p24 antigens produced by the cells was determined on day 7 in the culture via a commercially available ELISA kit (PerkinElmer). The p24 production level in drug-free control cell cultures was used as the reference. […] Antiviral assays using MAGI-CCR5 cells (MAGI assay) were conducted as previously reported[16],[39]. Single-round virus infection assays using TZM-bl cells infected with R5-HIV-1s (HIV-1YU2, HIV-1KP-5pc, and HIV-1KP-5mvcR)[10] were also conducted as previously described.

[2] = tested on: pCH0.6.c/2633; assay: MAGI assay, T/F HIV-1 clone pCH0.6.c/2633; assay type: cell-based; conditions: Human immunodeficiency virus 1, MAGI
Description: (§3) We also examined the activity of GRL-compounds against Transmitter/founder (T/F) HIV-1 viruses. T/F viruses are involved in the initial infection. It is considered that T/F viruses virtually always use CCR5 rather than CXCR4 and infect T cells but not macrophages because […] of CD4 is needed to mediate virus entry for the initial transmission[20]–[24]. […] We obtained four HIV-1 T/F infectious clones. We determined the antiviral activity of GRL-117C, GRL-10007C and GRL-10018C on these HIV-1 clones using MAGI assay.
as §1, with “A clinical HIV-1 strain, HIV-1KP-5pc, and an MVC-resistant isolate, HIV-1KP-5mvcR, were prepared and used for antiviral assays, as previously described[10],[38].” left out
as §2

[3] = tested on: pTHRO.c/2626; assay: MAGI assay, T/F HIV-1 clone pTHRO.c/2626; assay type: cell-based; conditions: Human immunodeficiency virus 1, MAGI
Description: as §3
as §1, with “A clinical HIV-1 strain, HIV-1KP-5pc, and an MVC-resistant isolate, HIV-1KP-5mvcR, were prepared and used for antiviral assays, as previously described[10],[38].” left out
as §2

[4] = tested on: R5-HIV-1BaL; assay: p24 assay using PBMCs and R5-HIV-1BaL; assay type: cell-based; conditions: Human immunodeficiency virus 1, BAL, PBMC, 168 h, Ba-L (PBMCs), day 7
Method: as §1, §2

[5] = tested on: pCH058.c/2960; assay: MAGI assay, T/F HIV-1 clone pCH058.c/2960; assay type: cell-based; conditions: Human immunodeficiency virus 1, MAGI
Description: as §3
as §1, with “A clinical HIV-1 strain, HIV-1KP-5pc, and an MVC-resistant isolate, HIV-1KP-5mvcR, were prepared and used for antiviral assays, as previously described[10],[38].” left out
as §2

[6] = tested on: pCH040.c/2625; assay: MAGI assay, T/F HIV-1 clone pCH040.c/2625; assay type: cell-based; conditions: Human immunodeficiency virus 1, MAGI
Description: as §3
as §1, with “A clinical HIV-1 strain, HIV-1KP-5pc, and an MVC-resistant isolate, HIV-1KP-5mvcR, were prepared and used for antiviral assays, as previously described[10],[38].” left out
as §2

[7] = molecular target: T1, CCR5 (Homo sapiens, UniProt P51681); assay: Inhibition of 125I-MIP-1β binding to CCR5 (CCR5+ CHO cells)
T1 construct: expressed in transfected cells; host or cells: Chinese hamster ovary (CHO) cells expressing CCR5
Method: (§4) In order to determine whether GRL derivatives block the binding of CC-chemokines to CCR5, we conducted a CC-chemokine binding inhibition assay using ^125I-labeled CC-chemokines (^125I-RANTES, ^125I-MIP-1α, and ^125I-MIP-1β) and CCR5 expressing cells.
(§5) CCR5^+ CHO cells were incubated with (A) ^125I-MIP-1α, (B) ^125I-MIP-1β, and (C) ^125I-RANTES (200 ng/ml) in the presence or absence of varying concentrations of CCR5 inhibitors. Data are shown as means ± s.d. of three independent experiments.
(§6) The inhibition of the binding of ^125I-labeled CC-chemokines ([^125I] RANTES, [^125I] MIP-1α, or [^125I] MIP-1β) to CCR5 by various CCR5 inhibitors was measured as previously described. Calcium flux inhibition assays were also performed with CCR5 inhibitors, and were carried out with the Fluo-4 Direct^TM calcium reagent (Invitrogen); assays were conducted as previously described with minor modifications. In brief, CHO-CCR5 cells (5 × 10^5 cells) were exposed to Fluo-4 Direct^TM calcium reagent for 60 min at 37 °C in RPMI containing 5% FCS. Cells were then incubated with the test compound for 30 min at varying concentrations. Subsequently, cells were exposed to either MIP-1α, MIP-1β, or RANTES at 200 ng/ml. Relative increases in cytosolic Ca^2+ levels after chemokine exposure were determined with flow cytometry (FACSCalibur, BD Biosciences), and IC50 values of cytosolic Ca^2+ mobilization (Ca^2+ flux) were compared with the Ca^2+ flux level in drug-free control samples.

[8] = tested on: D1/85.16 cl.23 (VVC resistant); assay: microbe, parasite or virus in culture; assay type: cell-based, HIV-1; conditions: for IC90: Human immunodeficiency virus 1; for IC50: Human immunodeficiency virus 1, D1/85.16 cl.23 (VVC resistant)
Method: as §1, §2

[9] = tested on: CC101.19 cl.7 (AD101 resistant); assay: microbe, parasite or virus in culture; assay type: cell-based, HIV-1; conditions: for IC90: Human immunodeficiency virus 1; for IC50: Human immunodeficiency virus 1, CC101.19 cl.7 (AD101 resistant)
Method: as §1, §2

[10] = molecular target: T1, CCR5; assay: Inhibition of 125I-MIP-1α binding to CCR5 (CCR5+ CHO cells)
Method: as §4, §5, §6

[11] = molecular target: T1, CCR5; assay: Inhibition of 125I-RANTES binding to CCR5 (CCR5+ CHO cells)
Method: as §4, §5, §6

[12] = tested on: CC1/85 cl.7; assay: Anti-HIV-1 assay, drug-naive clinical strain CC1/85 cl.7; assay type: cell-based; conditions: Human immunodeficiency virus 1
Method: as §1, §2

[13] = tested on: R5-HIV-1Ba-L; assay: MAGI assay using MAGI/CCR5 cells and R5-HIV-1Ba-L; assay type: cell-based; conditions: Human immunodeficiency virus 1, BAL, Ba-L (MAGI)
Method: as §1, §2

[14] = tested on: CC1/85 cl.6; assay: Anti-HIV-1 assay, drug-naive clinical strain CC1/85 cl.6; assay type: cell-based; conditions: Human immunodeficiency virus 1; CC1/85 cl.6, drug naive R5-HIV-1 clinical strain; read-out: IC50
Method: as §1, §2

[15] = tested on: HIV-1KP-5pc; assay: TZM-bl single-round infection assay, HIV-1KP-5pc; assay type: cell-based; conditions: for IC50: KP-5pc, drug-sensitive clinical strain, TZM-bl assay, mean ± SD
Method: as §1, §2

[16] = tested on: HIV-1YU2; assay: TZM-bl single-round infection assay, HIV-1YU2; assay type: cell-based; conditions: Human immunodeficiency virus 1, YU2, drug-sensitive, mean ± SD
Method: as §1, §2

[17] = Human immunodeficiency virus 1, TZM-bl

T1 sequence (P51681 whole entry): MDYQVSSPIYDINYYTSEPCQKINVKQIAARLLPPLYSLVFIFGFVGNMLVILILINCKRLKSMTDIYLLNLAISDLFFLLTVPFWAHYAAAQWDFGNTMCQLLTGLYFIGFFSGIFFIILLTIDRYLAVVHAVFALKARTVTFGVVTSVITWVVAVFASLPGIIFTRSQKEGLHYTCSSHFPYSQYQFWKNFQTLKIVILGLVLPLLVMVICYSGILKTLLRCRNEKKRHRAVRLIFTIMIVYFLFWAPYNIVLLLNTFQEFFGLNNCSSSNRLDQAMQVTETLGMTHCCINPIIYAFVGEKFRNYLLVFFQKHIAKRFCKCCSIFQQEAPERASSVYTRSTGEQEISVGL

Row | Compound | IC50 [2] [nM] | IC50 [3] [nM] | IC50 [4] [nM] | IC90 [4] [nM] | IC50 [5] [nM] | IC50 [6] [nM] | IC90 [8] [nM] | IC50 [8] [nM] | IC90 [9] [nM] | IC50 [9] [nM] | IC50 [12] [nM] | IC90 [12] [nM] | IC50 [13] [nM] | IC90 [13] [nM] | other results
1 | C=CCN(C(=O)OCC1COC2OCCC12)C1CC2CCC(C1)N2CCC(C)(CN(C)S(=O)(=O)c1ccccc1)c1ccccc1 (stereo not shown) [GRL-10018C] | 8.8 ± 4.2 | 3.9 ± 1.1 | 18.7 | 155 | 8 ± 2.3 | 7.2 ± 1.4 | 642 | 61.3 | 553 | 52.5 | 4.9 | 34.9 | 2.9 | 27.5 | activity against MVC-resistant HIV-1 (HIV-1KP-5mvcR) ([1]; in words, data not shown): failed to demonstrate activity; EC50 [7]: 0.4 nM; fold increases of IC50s compared to wild type (CC1/85 cl.7) ([8]; D1/85.16 cl.23 (VVC resistant) vs CC1/85 cl.7): (×12.5) fold; fold increases of IC50s compared to wild type (CC1/85 cl.7) ([9]; CC101.19 cl.7 (AD101 resistant) vs CC1/85 cl.7): (×11) fold; EC50 [10]: 0.3 nM; EC50 [11]: 17 nM
2 | CCCCN1C(=O)[C@@H]([C@H](O)C2CCCCC2)NC(=O)C12CCN(Cc1ccc(Oc3ccc(C(=O)O)cc3)cc1)CC2 [APL, 4-[4-[(3 R)-1-butyl-3-[(1 R)cyclohexylhydroxymethyl]-2,5-dioxo-1,4,9-triazaspiro [5.5]undec-9 ylmethyl]phenoxy] benzoic acid hydrochloride] | 1.9 ± 0.2 | 0.9 ± 0.1 | 2.6 | 13.4 | 1.7 ± 0.2 | 0.7 ± 0.2 | 98.6 | 8.6 | 200 | 16.3 | 1.8 | 11.3 | 0.2 | 4.9 | IC50 [14]: 1.5 nM
3 | CCCCOCCOc1ccc(-c2ccc3c(c2)/C=C(/C(=O)Nc2ccc([S@@+]([O-])Cc4cncn4CCC)cc2)CCCN3CC(C)C)cc1 [CVC, cenicriviroc] | – | – | – | – | – | – | – | – | – | – | – | – | – | – | IC50 [1, 17]: 260 ± 352 nM; IC90 [1, 17]: > 300 nM; fold change of IC50 values between HIV-1KP-5pc (wild type) and HIV-1KP-5mvcR ([1]; KP-5mvcR vs KP-5pc / wild type): 63 fold; IC90 [15, 17]: 105 nM; IC50 [15, 17]: 4.1 nM; IC50 [15]: 4.9 ± 2.2 nM; IC50 [16]: 1.1 ± 0.7 nM; IC90 [16]: 6.2 nM
